The values that follow are results of earlier work, collected in publication PMC10505172, “Discovery and pharmacophoric characterization of chemokine network inhibitors using phage-display, saturation mutagenesis and computational modelling” (Nature Communications, 2023).

The data set relates to CCL5. The note with it: cited from earlier work. From the text:
Peptides and peptidomimetics that mimic the activity of parental proteins have been successfully developed from several naturally occurring proteins into viable clinical therapeutics. Exemplars include the peptidomimetics captopril, eptifibatide and tirofiban, which are based on peptides derived from the snake venom toxins bradykinin-potentiating-peptide, barbourin and echistatin respectively. […] Inspired by these exemplars, by usi ...

Regarding EEEDDYTAYAPLTAYFTN [Ev4Glu^14-Asn^31], the “inhibition of CCL5 function” value is recorded as “inhibits CCL5 function”.
